This passage reports AC50 results from ChEMBL document CHEMBL5291721, “A preclinical secondary pharmacology resource illuminates target-adverse drug reaction associations of marketed drugs” (Nat Commun, 2023).

A value given as a limit tells only on which side of the number the result lay.

The target in test [1] is T1, Cannabinoid receptor 1 (Homo sapiens, UniProt P21554). The class given is functional, cell-based.
Test [2] addresses Voltage-dependent L-type calcium channel subunit alpha-1C (Rattus norvegicus, UniProt P22002). The class given is functional.
The target in test [3] is Sodium-dependent noradrenaline transporter (Homo sapiens, UniProt P23975).
Another test deals with T2, Progesterone receptor (Homo sapiens, UniProt P06401).
T2 sequence (P06401 whole entry): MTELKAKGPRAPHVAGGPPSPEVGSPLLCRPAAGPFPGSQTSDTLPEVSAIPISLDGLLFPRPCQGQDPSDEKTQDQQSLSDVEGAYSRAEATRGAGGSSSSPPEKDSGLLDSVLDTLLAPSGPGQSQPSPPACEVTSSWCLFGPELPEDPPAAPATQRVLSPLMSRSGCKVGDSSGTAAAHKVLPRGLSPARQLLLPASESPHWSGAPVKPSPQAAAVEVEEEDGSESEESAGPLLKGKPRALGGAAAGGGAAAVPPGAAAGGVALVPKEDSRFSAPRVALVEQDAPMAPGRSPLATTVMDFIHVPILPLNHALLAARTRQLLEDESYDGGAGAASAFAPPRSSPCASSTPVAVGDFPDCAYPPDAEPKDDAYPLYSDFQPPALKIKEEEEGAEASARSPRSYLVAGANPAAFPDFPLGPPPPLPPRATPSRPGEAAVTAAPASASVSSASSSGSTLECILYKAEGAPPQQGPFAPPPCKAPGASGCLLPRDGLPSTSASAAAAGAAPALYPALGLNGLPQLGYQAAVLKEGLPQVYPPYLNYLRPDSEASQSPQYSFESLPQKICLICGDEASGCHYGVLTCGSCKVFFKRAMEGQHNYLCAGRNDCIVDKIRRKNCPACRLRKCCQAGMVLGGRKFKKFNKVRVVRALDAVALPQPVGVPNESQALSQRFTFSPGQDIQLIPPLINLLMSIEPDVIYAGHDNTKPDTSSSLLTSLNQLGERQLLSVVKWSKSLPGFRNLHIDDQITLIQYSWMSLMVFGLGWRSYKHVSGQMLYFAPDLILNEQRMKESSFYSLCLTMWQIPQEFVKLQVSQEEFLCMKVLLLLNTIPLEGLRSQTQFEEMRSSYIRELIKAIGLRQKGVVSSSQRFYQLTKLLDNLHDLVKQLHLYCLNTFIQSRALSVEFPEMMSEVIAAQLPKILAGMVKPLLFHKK
The class given is functional.

Another test has as its target Adenosine receptor A2a (Homo sapiens, UniProt P29274).
Test [4] concerns the target T3, Cholecystokinin receptor type A (Homo sapiens, UniProt P32238).
T3 sequence (P32238 whole entry): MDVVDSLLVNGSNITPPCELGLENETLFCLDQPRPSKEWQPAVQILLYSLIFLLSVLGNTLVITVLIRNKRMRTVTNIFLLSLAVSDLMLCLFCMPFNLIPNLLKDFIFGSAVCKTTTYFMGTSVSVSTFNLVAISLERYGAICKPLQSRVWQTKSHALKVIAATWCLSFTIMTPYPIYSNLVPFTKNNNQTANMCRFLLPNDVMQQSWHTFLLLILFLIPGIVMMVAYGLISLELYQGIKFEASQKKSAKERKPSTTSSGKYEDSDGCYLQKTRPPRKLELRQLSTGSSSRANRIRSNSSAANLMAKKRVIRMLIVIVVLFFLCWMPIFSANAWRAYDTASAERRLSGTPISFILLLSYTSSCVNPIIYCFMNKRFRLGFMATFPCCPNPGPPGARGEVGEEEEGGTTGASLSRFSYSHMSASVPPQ

Test [5] has as its target T1, Cannabinoid receptor 1. Type of test: functional, cell-based. The source holds these as a separate data set.
The target in test [6] is T4, Prostaglandin G/H synthase 1 (Rattus norvegicus, UniProt Q63921).
T4 sequence (Q63921 whole entry): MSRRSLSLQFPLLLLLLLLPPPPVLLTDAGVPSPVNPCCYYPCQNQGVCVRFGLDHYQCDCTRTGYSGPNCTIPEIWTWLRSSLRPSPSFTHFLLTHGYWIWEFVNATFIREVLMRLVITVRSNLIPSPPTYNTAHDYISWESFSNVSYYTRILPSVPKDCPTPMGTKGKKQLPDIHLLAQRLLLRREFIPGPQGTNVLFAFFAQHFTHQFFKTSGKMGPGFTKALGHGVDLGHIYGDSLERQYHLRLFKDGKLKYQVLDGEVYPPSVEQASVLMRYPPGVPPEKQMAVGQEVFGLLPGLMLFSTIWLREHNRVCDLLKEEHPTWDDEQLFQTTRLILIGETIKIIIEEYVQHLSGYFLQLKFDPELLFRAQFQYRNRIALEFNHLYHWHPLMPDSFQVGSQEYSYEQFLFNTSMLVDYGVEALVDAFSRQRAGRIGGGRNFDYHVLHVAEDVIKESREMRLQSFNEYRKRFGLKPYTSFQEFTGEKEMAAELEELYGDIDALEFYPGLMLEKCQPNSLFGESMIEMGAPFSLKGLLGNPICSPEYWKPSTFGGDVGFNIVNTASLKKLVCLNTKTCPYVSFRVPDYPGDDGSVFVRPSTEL
Type of test: functional.

The target in test [7] is Gamma-aminobutyric acid receptor subunit alpha-1 (Rattus norvegicus, UniProt P62813). The class given is functional.
Test [8] deals with Neuronal acetylcholine receptor subunit alpha-4 (Homo sapiens, UniProt P43681).
In test [9] the target is Glutamate receptor ionotropic, NMDA 1 (Rattus norvegicus, UniProt P35439).
In the next test the target is Histamine H2 receptor (Homo sapiens, UniProt P25021). Type of test: functional, cell-based.
The target of the next test is D(1A) dopamine receptor (Homo sapiens, UniProt P21728). The class given is functional, cell-based.
For test [10], the target named is T5, Type-1 angiotensin II receptor (Homo sapiens, UniProt P30556).
T5 sequence (P30556 whole entry): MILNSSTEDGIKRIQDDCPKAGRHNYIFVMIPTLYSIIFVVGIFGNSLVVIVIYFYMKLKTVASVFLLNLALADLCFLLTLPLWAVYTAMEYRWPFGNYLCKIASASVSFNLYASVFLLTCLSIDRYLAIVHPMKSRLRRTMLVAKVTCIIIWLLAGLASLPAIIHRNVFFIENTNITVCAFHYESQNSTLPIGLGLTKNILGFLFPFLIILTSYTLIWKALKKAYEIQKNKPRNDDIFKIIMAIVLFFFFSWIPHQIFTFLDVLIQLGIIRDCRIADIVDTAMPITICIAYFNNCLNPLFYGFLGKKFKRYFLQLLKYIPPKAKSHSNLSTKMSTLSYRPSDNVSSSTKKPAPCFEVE
Also: assay procedure not described here.

Sequence of D(1A) dopamine receptor (P21728 whole entry): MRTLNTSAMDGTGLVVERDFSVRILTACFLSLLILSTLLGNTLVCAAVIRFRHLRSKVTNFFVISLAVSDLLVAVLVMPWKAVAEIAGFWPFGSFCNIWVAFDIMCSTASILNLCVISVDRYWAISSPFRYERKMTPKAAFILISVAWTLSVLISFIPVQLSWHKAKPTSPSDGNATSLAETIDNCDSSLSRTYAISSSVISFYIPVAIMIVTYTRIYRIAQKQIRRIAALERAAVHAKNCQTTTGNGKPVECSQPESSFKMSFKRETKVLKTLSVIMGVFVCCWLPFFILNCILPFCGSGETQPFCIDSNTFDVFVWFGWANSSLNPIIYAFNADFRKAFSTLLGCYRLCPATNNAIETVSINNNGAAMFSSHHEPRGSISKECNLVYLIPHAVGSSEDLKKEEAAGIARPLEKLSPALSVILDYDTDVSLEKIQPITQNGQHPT
Sequence of Gamma-aminobutyric acid receptor subunit alpha-1 (P62813 whole entry): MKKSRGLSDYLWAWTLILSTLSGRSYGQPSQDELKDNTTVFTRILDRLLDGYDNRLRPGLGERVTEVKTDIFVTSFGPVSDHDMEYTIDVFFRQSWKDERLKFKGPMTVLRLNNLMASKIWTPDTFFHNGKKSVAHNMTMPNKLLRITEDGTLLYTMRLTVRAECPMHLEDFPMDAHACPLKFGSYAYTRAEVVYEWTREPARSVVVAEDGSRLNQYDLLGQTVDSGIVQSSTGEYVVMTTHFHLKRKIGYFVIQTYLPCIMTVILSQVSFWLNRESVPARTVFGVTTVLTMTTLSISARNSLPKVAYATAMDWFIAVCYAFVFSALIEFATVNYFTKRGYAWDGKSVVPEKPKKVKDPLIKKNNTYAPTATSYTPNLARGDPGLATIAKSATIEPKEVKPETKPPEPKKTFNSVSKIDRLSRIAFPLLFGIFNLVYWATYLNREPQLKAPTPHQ
Sequence of Neuronal acetylcholine receptor subunit alpha-4 (P43681 whole entry): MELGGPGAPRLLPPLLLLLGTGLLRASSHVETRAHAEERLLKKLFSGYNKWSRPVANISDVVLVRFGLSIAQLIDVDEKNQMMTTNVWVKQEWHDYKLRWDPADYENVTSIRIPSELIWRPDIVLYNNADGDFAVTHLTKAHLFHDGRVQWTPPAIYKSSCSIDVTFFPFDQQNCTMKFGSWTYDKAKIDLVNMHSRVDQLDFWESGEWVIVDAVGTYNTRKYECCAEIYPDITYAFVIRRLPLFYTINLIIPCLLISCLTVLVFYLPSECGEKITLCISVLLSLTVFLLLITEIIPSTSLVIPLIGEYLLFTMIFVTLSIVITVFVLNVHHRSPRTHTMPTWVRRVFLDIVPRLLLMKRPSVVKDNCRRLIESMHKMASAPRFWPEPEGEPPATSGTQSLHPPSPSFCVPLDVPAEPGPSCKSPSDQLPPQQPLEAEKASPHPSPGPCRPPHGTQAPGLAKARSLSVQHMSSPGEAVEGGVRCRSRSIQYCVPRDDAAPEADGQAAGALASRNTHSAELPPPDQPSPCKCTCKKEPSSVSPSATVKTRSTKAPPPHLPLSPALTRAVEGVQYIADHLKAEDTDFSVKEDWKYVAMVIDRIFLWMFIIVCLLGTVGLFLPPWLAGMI
Sequence of Sodium-dependent noradrenaline transporter (P23975 whole entry): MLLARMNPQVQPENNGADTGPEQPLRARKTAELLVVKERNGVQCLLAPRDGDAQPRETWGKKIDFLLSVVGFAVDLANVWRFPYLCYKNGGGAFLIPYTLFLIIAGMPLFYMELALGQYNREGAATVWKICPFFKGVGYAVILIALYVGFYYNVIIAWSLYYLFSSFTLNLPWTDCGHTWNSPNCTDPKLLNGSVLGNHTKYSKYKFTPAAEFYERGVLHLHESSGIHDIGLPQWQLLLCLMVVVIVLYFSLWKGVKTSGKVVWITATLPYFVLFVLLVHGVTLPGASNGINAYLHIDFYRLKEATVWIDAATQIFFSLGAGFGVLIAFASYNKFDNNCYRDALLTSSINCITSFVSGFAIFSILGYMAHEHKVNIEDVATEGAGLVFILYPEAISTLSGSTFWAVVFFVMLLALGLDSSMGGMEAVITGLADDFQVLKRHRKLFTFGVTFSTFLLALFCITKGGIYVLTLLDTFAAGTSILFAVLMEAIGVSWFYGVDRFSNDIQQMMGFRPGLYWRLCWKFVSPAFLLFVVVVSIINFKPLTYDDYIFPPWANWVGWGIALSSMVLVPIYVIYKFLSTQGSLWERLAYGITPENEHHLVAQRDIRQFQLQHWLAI
Sequence of Voltage-dependent L-type calcium channel subunit alpha-1C (P22002 whole entry): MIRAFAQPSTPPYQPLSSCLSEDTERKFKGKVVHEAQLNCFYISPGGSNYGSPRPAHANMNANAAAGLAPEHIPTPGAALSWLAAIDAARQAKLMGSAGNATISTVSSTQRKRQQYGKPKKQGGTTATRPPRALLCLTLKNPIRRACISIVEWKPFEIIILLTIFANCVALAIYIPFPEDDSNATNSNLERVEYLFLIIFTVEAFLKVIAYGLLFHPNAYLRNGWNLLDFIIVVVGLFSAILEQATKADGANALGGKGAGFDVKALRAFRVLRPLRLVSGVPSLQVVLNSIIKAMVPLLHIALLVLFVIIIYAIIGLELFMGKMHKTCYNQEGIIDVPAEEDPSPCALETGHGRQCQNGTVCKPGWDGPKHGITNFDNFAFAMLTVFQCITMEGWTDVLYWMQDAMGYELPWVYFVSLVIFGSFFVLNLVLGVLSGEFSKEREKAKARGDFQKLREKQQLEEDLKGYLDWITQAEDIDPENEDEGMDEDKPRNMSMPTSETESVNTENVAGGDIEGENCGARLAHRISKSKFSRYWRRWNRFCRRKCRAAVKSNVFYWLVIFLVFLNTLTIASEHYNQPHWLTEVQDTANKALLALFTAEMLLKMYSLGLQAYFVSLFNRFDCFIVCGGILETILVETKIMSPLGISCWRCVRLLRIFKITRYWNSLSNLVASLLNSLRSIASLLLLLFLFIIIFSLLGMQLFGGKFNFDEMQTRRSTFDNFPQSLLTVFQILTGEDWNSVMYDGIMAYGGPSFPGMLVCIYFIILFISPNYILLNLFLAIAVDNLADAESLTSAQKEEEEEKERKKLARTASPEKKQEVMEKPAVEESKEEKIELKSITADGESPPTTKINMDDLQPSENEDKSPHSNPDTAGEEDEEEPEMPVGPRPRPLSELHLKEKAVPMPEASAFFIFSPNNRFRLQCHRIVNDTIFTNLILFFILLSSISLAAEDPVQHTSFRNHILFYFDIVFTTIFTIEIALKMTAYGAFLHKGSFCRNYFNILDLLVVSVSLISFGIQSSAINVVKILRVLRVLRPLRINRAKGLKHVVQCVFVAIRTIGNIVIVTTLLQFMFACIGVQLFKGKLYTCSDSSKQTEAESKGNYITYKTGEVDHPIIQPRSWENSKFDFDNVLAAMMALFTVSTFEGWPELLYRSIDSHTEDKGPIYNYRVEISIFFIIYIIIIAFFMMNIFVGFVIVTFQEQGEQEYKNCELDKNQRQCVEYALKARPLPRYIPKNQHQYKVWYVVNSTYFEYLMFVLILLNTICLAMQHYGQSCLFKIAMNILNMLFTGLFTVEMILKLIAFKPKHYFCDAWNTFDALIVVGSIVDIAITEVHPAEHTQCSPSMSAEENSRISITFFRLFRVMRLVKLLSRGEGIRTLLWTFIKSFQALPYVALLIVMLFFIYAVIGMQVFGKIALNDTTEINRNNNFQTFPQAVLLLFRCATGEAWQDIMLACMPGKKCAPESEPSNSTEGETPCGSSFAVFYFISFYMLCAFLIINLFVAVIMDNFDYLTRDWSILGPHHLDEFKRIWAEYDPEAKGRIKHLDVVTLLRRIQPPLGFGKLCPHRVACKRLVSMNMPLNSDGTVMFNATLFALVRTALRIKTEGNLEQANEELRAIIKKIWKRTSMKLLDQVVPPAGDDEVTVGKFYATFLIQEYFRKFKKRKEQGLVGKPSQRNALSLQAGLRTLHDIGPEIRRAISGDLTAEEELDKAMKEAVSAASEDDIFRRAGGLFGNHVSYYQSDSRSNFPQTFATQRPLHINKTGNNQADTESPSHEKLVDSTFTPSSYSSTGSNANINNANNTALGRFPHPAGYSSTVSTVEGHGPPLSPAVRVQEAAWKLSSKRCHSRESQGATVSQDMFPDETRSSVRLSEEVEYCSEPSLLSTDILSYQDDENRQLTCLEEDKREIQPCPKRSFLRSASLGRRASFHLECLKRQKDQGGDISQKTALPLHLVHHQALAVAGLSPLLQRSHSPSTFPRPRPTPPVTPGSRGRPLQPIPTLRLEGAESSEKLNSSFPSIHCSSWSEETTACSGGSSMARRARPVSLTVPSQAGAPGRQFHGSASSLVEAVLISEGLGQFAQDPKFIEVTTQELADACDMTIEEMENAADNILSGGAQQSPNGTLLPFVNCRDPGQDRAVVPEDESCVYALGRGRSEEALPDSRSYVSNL
T1 sequence (P21554 whole entry): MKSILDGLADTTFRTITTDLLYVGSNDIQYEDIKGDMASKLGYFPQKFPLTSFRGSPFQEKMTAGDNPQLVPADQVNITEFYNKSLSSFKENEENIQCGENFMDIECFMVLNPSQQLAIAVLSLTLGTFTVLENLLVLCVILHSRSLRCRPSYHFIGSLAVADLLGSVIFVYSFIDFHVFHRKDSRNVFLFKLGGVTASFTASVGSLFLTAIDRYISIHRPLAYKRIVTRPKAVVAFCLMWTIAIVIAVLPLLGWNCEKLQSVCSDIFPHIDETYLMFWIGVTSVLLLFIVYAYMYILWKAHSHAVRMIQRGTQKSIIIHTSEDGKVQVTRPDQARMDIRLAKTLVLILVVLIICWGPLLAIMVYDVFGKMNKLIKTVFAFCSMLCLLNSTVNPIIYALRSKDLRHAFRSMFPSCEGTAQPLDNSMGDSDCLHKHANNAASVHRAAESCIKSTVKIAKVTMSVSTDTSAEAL

In the case of `CCOC(=O)[C@H](CCc1ccccc1)N[C@H]1CCCN2CCC[C@@H](C(=O)O)N2C1=O` [CILAZAPRIL], the half-maximal activity concentration (AC50) (on Cannabinoid receptor 1 [1]; in test [2]; in [3]; at Progesterone receptor; at Adenosine receptor A2a; in [4]) was greater than 30 µM each time. Further, the concentration at half-maximal activity (AC50) (at Cannabinoid receptor 1 [5]; in test [6]; in test [7]; in test [8]; in [9]; at Histamine H2 receptor) was greater than 30 µM throughout. Further, the AC50 (on D(1A) dopamine receptor; in test [10]) was greater than 30 µM throughout.
On to `COc1ccc2c(c1)c(CC(=O)OCC(=O)O)c(C)n2C(=O)c1ccc(Cl)cc1` [ACEMETACIN], for which the AC50 (on Cannabinoid receptor 1 [1]; in test [2]; in test [3]; at Progesterone receptor; at Adenosine receptor A2a; in test [4]) was greater than 30 µM each time. The half-maximal activity concentration (AC50) at Cannabinoid receptor 1 [5] was greater than 30 µM; in test [6] it was 30 µM; in test [7], greater than 30 µM; in test [8] it was greater than 30 µM; in [9], greater than 30 µM; at Histamine H2 receptor, greater than 30 µM. Moreover, the half-maximal activity concentration (AC50) (on D(1A) dopamine receptor; in test [10]) was greater than 30 µM in each case.
Take `Cc1cc2c(OCC(CNC(C)(C)C)OC(=O)c3ccccc3)cccc2[nH]1` (stereo unspecified) [BOPINDOLOL]: the half-maximal activity concentration (AC50) on Cannabinoid receptor 1 [1] is greater than 30 µM; in test [2], greater than 30 µM; in [3], 10.3 µM; on Progesterone receptor it was greater than 30 µM; at Adenosine receptor A2a it was greater than 30 µM; in test [4] it was greater than 30 µM. Besides, the concentration at half-maximal activity (AC50) was greater than 30 µM at Cannabinoid receptor 1 [5]; 3.5 µM in test [6]; greater than 30 µM in test [7]; greater than 30 µM in test [8]; greater than 30 µM in test [9]; greater than 30 µM at Histamine H2 receptor. In addition, the concentration at half-maximal activity (AC50) (at D(1A) dopamine receptor; in [10]) was greater than 30 µM in each case.
On to `O=C(C[S+]([O-])C(c1ccccc1)c1ccccc1)NO` (stereo unspecified), for which the concentration at half-maximal activity (AC50) (on Cannabinoid receptor 1 [1]; in test [2]; in test [3]; on Progesterone receptor; at Adenosine receptor A2a; in test [4]) was greater than 30 µM throughout. Moreover, the concentration at half-maximal activity (AC50) (at Cannabinoid receptor 1 [5]; in [6]; in [7]; in [8]; in test [9]; on Histamine H2 receptor) was greater than 30 µM throughout. The AC50 (at D(1A) dopamine receptor; in test [10]) was greater than 30 µM throughout.
Take `Cc1c(O)c(=O)ccn1C` [DEFERIPRONE]: the half-maximal activity concentration (AC50) (at Cannabinoid receptor 1 [1]; in [2]; in test [3]; on Progesterone receptor; on Adenosine receptor A2a; in test [4]) was greater than 30 µM in each case. Also, the AC50 was greater than 30 µM at Cannabinoid receptor 1 [5]; greater than 3 µM in test [6]; greater than 30 µM in test [7]; greater than 30 µM in test [8]; greater than 30 µM in test [9]; greater than 30 µM on Histamine H2 receptor. Also, the AC50 (on D(1A) dopamine receptor; in test [10]) was greater than 30 µM in each case.
On to `CN1CCN(C(=O)OC2c3nccnc3C(=O)N2c2ccc(Cl)cn2)CC1` (stereo unspecified) [ZOPICLONE], for which the concentration at half-maximal activity (AC50) is greater than 30 µM on Cannabinoid receptor 1 [1]; greater than 10 µM in [2]; greater than 30 µM in test [3]; greater than 30 µM at Progesterone receptor; greater than 30 µM at Adenosine receptor A2a; greater than 30 µM in test [4]. Also, the half-maximal activity concentration (AC50) at Cannabinoid receptor 1 [5] is greater than 30 µM; in [6] it was greater than 30 µM; in [7] it was 0.093 µM; in test [8] it was greater than 30 µM; in test [9], greater than 10 µM; at Histamine H2 receptor, greater than 10 µM. Further, the AC50 at D(1A) dopamine receptor was greater than 10 µM; in test [10], greater than 30 µM.
For `CN1C(=O)CC(c2ccccc2)C1=O` (stereo unspecified) [PHENSUXIMIDE], the concentration at half-maximal activity (AC50) at Cannabinoid receptor 1 [1] was greater than 30 µM; in [2] it was greater than 10 µM; in [3] it was greater than 10 µM; at Progesterone receptor, greater than 10 µM; at Adenosine receptor A2a it was greater than 10 µM; in test [4] it was greater than 10 µM. Also, the AC50 was greater than 30 µM on Cannabinoid receptor 1 [5]; greater than 10 µM in test [6]; greater than 10 µM in [7]; greater than 10 µM in test [8]; greater than 10 µM in test [9]; greater than 10 µM at Histamine H2 receptor. The half-maximal activity concentration (AC50) (on D(1A) dopamine receptor; in test [10]) was greater than 10 µM in each case.
For the compound `CN1C(=O)COc2c(C(=O)NC3CN4CCC3CC4)cc(Cl)cc21` (stereo unspecified) [AZASETRON], the half-maximal activity concentration (AC50) (at Cannabinoid receptor 1 [1]; in test [2]; in test [3]; at Progesterone receptor; on Adenosine receptor A2a; in test [4]) was greater than 30 µM in each case. The AC50 (on Cannabinoid receptor 1 [5]; in test [6]; in [7]; in test [8]; in test [9]; on Histamine H2 receptor) was greater than 30 µM each time. Further, the AC50 (on D(1A) dopamine receptor; in test [10]) was greater than 30 µM each time.
In the case of TOCOFERSOLAN, the concentration at half-maximal activity (AC50) (at Cannabinoid receptor 1 [1]; in test [2]; in test [3]; at Progesterone receptor; at Adenosine receptor A2a; in [4]) was greater than 30 µM each time. Also, the AC50 is greater than 30 µM at Cannabinoid receptor 1 [5]; 4 µM in test [6]; greater than 30 µM in test [7]; greater than 30 µM in test [8]; greater than 30 µM in [9]; greater than 30 µM on Histamine H2 receptor. The AC50 (at D(1A) dopamine receptor; in [10]) was greater than 30 µM each time.
